Like-named read-outs stand apart in the source and are kept apart here.
Experiments:
[1] = tested on: MCF-7 breast cancer cells; assay: Inhibition of proliferation of MCF-7 breast cancer cells (agarose culture, CellTiter-Glo 3D); format: cell-based; settings: MCF-7 cells, 15 days of cultivation, read-out: IC50
ER [2] = target: T1, ER (Homo sapiens, UniProt P03372); assay: Degradation activities on ER (ELISA) in T47D breast cancer cells; format: cell-based; settings: T47D cells, 24 h, ELISA; for DC50: concentration required to degrade 50% of the target protein; for Dmax: maximum percentage of target protein degraded
T1 construct: T47D breast cancer cells were subcultured in cell culture medium; endogenous in cells; host or cells: T47D breast cancer cells
T1 sequence (P03372 1-595): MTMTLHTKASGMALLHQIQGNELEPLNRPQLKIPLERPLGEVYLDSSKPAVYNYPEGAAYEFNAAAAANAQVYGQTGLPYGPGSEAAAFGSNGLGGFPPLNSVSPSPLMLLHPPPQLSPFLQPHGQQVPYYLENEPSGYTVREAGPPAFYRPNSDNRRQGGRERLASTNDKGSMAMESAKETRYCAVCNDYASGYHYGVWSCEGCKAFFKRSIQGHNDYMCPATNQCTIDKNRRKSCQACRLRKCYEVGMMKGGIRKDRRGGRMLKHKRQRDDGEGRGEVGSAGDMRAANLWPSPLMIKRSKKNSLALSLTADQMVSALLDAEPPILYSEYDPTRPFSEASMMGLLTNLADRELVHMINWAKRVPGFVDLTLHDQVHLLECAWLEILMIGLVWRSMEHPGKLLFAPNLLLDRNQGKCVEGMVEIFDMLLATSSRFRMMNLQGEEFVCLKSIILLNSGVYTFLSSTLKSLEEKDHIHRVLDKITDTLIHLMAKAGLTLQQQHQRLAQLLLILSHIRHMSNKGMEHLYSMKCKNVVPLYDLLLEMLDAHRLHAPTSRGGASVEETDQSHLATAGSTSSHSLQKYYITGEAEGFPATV
How it was run: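 T47D cells were seeded at 2.5×10^4/well, grown 3 days at 37 °C, 5% CO2, then exposed 24 h to compound at 100, 25, 6.25, 1.56, 0.39 and […] nM (final). ER protein was quantified by sandwich ELISA with HRP/TMB read at 450 nm, and DC50 and Dmax came from dose-response fits.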

ER [3] = target: T1, ER; assay: Degradation activities on ER (Western blotting) in T47D breast cancer cells; format: cell-based; settings: Western blot; for Percentage reduction of ER: 24 h
Experimental: T47D breast cancer cells were subcultured in cell culture medium, and the cells in good growth condition were seeded into 6-well plate at 2 mL/well, with 2.5×10^5 cells per well. The cells were incubated overnight in a 37° C. incubator under 5% CO2. The drug was prepared into 10 mM stock solution with dimethyl sulfoxide (DMSO). Prior to use, the stock solution was diluted with DMSO in a ratio of 1:3. […] of the diluted compound was added to the cell culture wells (to ensure a DMSO concentration of 0.1% in the culture system), and each concentration was repeated twice. The plate were gently shaken to mix. Additionally, the negative control wells (containing equal amount of DMSO) and the positive control wells were set up. After 24 hours of culture, the cells were lysed with RIPA cell lysis buffer to extract proteins, and the protein concentration was measured using a BCA kit. The protein loading buffer (5×) was added, and the plate was heated at 100° C. for 5 min. Then, the sample was stored at −20° C. […] of protein collected from each well was loaded onto a polyacrylamide gel for electrophoresis. The protein is transferred from the polyacrylamide gel to a PVDF membrane, blocked with 5% skim milk at room temperature for 1 h, and incubated overnight at 4° C. with primary antibodies Anti-ERα rabbit mAb (CST, Cat #: 8644S) and Anti-GAPDH rabbit mAb (CST, Cat #: 2118L). The membrane was washed three times with TBST solution, with 10 min for each time. The secondary antibody (horseradish peroxidase-labeled goat anti-rabbit IgG) was incubated at room temperature for 2 h, and then the membrane was washed three times with TBST solution, with 10 min for each time. Finally, ECL chromogenic solution was added for color development, and an automatic chemiluminescence instrument was used to take pictures. Images were collected and analyzed.
The degradation activities of the compounds according to the present invention towards ER, as tested by western blotting, are presented in Table 2

[4] = Pharmacokinetics in female ICR mice; settings: plasma; for AUCinf (μg*h/mL) / T1/2 (h) / AUC(0-inf): oral administration 3 mg/kg, female ICR mice; for half-life / AUC(0-inf): female, ICR, mouse, po; for AUC(0-inf): AUCinf (μg*h/mL)
Experimental: Pharmacokinetic experimental steps: A suitable amount of compound to be administered was weighed, and after the final volume required was calculated, a drug solution with corresponding concentration was prepared using the medium (DMSO/HS-15/Tween 80/D5W (5:5:2:88, v/v/v/v)). For intravenous administration, each drug was administered to 9 animals (female ICR mice, provided by Chengdu Dossy Experimental Animal Co., Ltd.) at a dose of 1 mg/kg (drug volume of 10 mL/kg, drug concentration of 0.1 mg/mL). After administration, samples were alternately collected from three animals of each group at time points of 5 min, 15 min, 30 min, 1 h, 2 h, 4 h, 8 h, 12 h, and 24 h. For oral gavage, each drug was administered to 9 animals (female ICR mice) at a dose of 3 mg/kg (drug volume of 10 mL/kg, drug concentration of 0.3 mg/mL). After administration, samples are alternately collected from three animals of each group at time points of 15 min, 30 min, 1 h, 2 h, 4 h, 6 h, 8 h, 12 h, and 24 h. The samples were anticoagulated with EDTA-K2 and centrifuged at 4° C. for 5 min to separate the plasma. The plasma samples were vortexed and mixed. A suitable amount of internal standard working solution was added to the 96-well plate containing samples used for plotting standard curve, samples used for quality control, or samples to be tested; A suitable amount of methanol was added to the blank sample, vortexed and mixed thoroughly, and then centrifuged for 15 min before the supernatant was collected and injected to LC-MS/MS for analysis. The plasma concentration at each time point was used to calculate the main pharmacokinetic parameters using the Winnolin 8.3 non-compartmental model.

Molecule	IC50 ([1]; Homo sapiens, MCF7, 360 h) [nM]	DC50 (ER [2]) [nM]	Dmax (ER [2]; read-out: Dmax) [%]	Percentage reduction of ER (ER [3]; compound concentration 1 nM) [%]	other results
O=C1CCC(N2Cc3cc(N4CC5(CCN(CC6CCN(c7ccc([C@@H]8c9ccc(O)cc9OC[C@@H]8c8c(F)cccc8F)cc7F)CC6)CC5)C4)ccc3C2=O)C(=O)N1 (stereo partly drawn) [Example 70, 3-(5-(7-((1-(4-((3S,4R)-3-(2,6-difluorophenyl)-7-hydroxychroman-4-yl)-2-fluorophenyl)piperidin-4-yl)methyl)-2,7-diazaspiro[3.5]nonane-2-yl)-1-oxoisoinodolin-2-yl)piperidin-2,6-dione]		< 10			AUCinf (μg*h/mL) [4]: A (A: > 2.5 μg*h/mL); T1/2 (h) [4]: A (A: >3.5 h); IC50 [1]: < 10 nM; Dmax (ER [2]): B (B: 75-50%)
3-(5-(7-((1-(2,6-difluoro-4-((3,4-cis)-3-(2-fluorophenyl)-7-hydroxychroman-4-yl)phenyl)piperidin-4-yl)methyl)-2,7-diazaspiro[3.5]nonane-2-yl)-1-oxoisoinodolin-2-yl)piperidin-2,6-dione [Example 33]		< 10		53	IC50 [1]: < 10 nM; Dmax (ER [2]): B (B: 75-50%)
O=C1CCC(N2Cc3cc(N4CCC5(CCN(CC6CCN(c7ccc([C@@H]8c9ccc(O)cc9OC[C@@H]8c8ccccc8)cc7)CC6)C5)C4)ccc3C2=O)C(=O)N1 (stereo partly drawn) [Example 8, 3-(5-(7-((1-(4-((3S,4R)-7-hydroxyl-3-phenyltryptophane-4-yl)phenyl)piperidin-4-yl)methyl)-2,7-diazaspiro[4.4]nonane-2-yl)-1-oxoisoinodolin-2-yl)piperidin-2,6-dione]	11 to 50			47	
O=C1CCC(N2Cc3cc(N4CC5(CCN(CC6CCN(c7ccc([C@@H]8c9ccc(O)cc9CC[C@@H]8c8ccccc8)cc7)CC6)C5)C4)ccc3C2=O)C(=O)N1 (stereo partly drawn) [Example 31, 3-(5-(6-((1-(4-((1,2-cis)-6-hydroxyl-2-phenyl-1,2,3,4-tetrahydronaphthalen-1-yl)phenyl)piperidin-4-yl)methyl)-2,6-diazaspiro[3.4]octane-2-yl)-1-oxoisoinodolin-2-yl)piperidin-2,6-one]	11 to 50				Percentage reduction of ER (ER [3]; compound concentration 100 nM): 50%
O=C1CCC(N2Cc3cc(N4CC5(CCN(CC6CCN(c7ccc([C@@H]8c9ccc(O)cc9OC[C@@H]8c8c(F)cccc8F)cc7)CC6)CC5)C4)ccc3C2=O)C(=O)N1 (stereo partly drawn) [Example 73, 3-(5-(7-((1-(4-((3S,4R)-3-(2,6-difluorophenyl)-7-hydroxychroman-4-yl)phenyl)piperidin-4-yl)methyl)-2,7-diazaspiro[3.5]nonane-2-yl)-1-oxoisoindol-2-yl)piperidin-2,6-dione]					T1/2 (h) [4]: A (A: >3.5 h); AUCinf (μg*h/mL) ([4]; 3 mg/kg): B (B: 1.4-2.5 μg*h/mL); IC50 [1]: < 10 nM; Dmax (ER [2]): B (B: 75-50%)
O=C1CCC(N2Cc3cc(N4CC5(CCN(CC6CCN(c7c(F)cc([C@@H]8c9ccc(O)cc9OC[C@@H]8c8c(F)cccc8F)cc7F)CC6)CC5)C4)ccc3C2=O)C(=O)N1 (stereo partly drawn) [Example 37]		< 10	50 to 75		half-life ([4]; 3 mg/kg): > 3.5 h; AUC(0-inf) ([4]; 3 mg/kg): > 2500 ng·h/mL
O=C1CCC(N2Cc3cc(N4CC5(CCN(CC6CCN(c7ccc([C@@H]8c9ccc(O)cc9OC[C@@H]8c8c(F)cccc8F)cc7F)CC6)CC5)C4)ccc3C2=O)C(=O)N1 (stereo partly drawn) [Example 65, 3-(5-(7-((1-(4-(3-(2,6-difluorophenyl)-7-hydroxyl-chroman-4-yl)-2-fluorophenyl)piperidin-4-yl)methyl)-2,7-diazaspiro[3.5]nonane-2-yl)-1-oxoisoinodolin-2-yl)piperidin-2,6-dione]	11 to 50	< 10	50 to 75		half-life ([4]; 3 mg/kg): > 3.5 h; AUC(0-inf) ([4]; 3 mg/kg): > 2500 ng·h/mL

Now from value to molecule, other results behind:

IC50 ([1]; Homo sapiens, MCF7, 360 h) [nM]	DC50 (ER [2]) [nM]	Dmax (ER [2]; read-out: Dmax) [%]	Percentage reduction of ER (ER [3]; compound concentration 1 nM) [%]	Molecule	other results
< 10	< 10	50 to 75		O=C1CCC(N2Cc3cc(N4CCC(CN5CC6(CCN(c7ccc([C@@H]8c9ccc(O)cc9CC[C@@H]8c8ccccc8)cc7)CC6)C5)CC4)ccc3C2=O)C(=O)N1 (stereo partly drawn) [Example 11]	Percentage reduction of ER (ER [3]; compound concentration 10 nM): 84%
11 to 50	10 to 50	50 to 75		O=C1CCC(N2C(=O)c3ccc(N4CC5(CCN(CC6CCN(c7ccc([C@@H]8c9ccc(O)cc9OC[C@@H]8c8ccccc8)cc7)CC6)CC5)C4)cc3C2=O)C(=O)N1 (stereo partly drawn) [Example 81, 2-(2,6-dioxopiperidin-3-yl)-5-(7-((1-(4-((3S,4R)-7-hydroxyl-3-phenylchroman-4-yl)phenyl)piperidin-4-yl)methyl)-2,7-diazaspiro[3.5]nonane-2-yl)isoinodolin-1,3-dione]	ER degradation activity (in words) (ER [3]): good ER degradation activity; Percentage reduction of ER (ER [3]; compound concentration 10 nM): 82%
< 10	< 10	50 to 75	70	O=C1CCC(N2Cc3cc(N4CC5(CCN(CC6CCN(c7ccc([C@@H]8c9ccc(O)cc9OC[C@@H]8c8ccccc8)cc7)CC6)CC5)C4)ccc3C2=O)C(=O)N1 (stereo partly drawn) [Example 79, 3-(5-(7-((1-(4-((3S,4R)-7-hydroxyl-3-phenylchroman-4-yl)phenyl)piperidin-4-yl)methyl)-2,7-diazaspiro[3.5]nonane-2-yl)-1-oxoisoinodolin-2-yl)piperidin-2,6-dione]	
< 10	< 10	50 to 75	56	O=C1CCC(N2Cc3cc(N4CC5CN(CC6CCN(c7ccc([C@@H]8c9ccc(O)cc9CC[C@@H]8c8ccccc8)cc7)CC6)CC5C4)ccc3C2=O)C(=O)N1 (stereo partly drawn) [Example 26, 3-(5-(5-((1-(4-((1R,2S)-6-hydroxyl-2-phenyl-1,2,3,4-tetrahydronaphthalen-1-yl)phenyl)piperidin-4-yl)methyl)hexahydropyrrolo[3,4-c]pyrrole-2(1H)-yl)-1-oxoisoinodolin-2-yl)piperidin-2,6-dione]	
< 10			76	O=C1CCC(N2Cc3cc(N4CCC5(CC4)CN(CC4CCN(c6ccc([C@@H]7c8ccc(O)cc8OC[C@@H]7c7ccccc7)cc6)CC4)C5)ccc3C2=O)C(=O)N1 (stereo partly drawn) [Example 58, 3-(5-(2-((1-(4-((3S,4R)-7-hydroxyl-3-phenyl-chroman-4-yl)phenyl)piperidin-4-yl)methyl)-2,7-diazaspiro[3.5]nonan-7-yl)-1-oxoisoinodolin-2-yl)piperidin-2,6-dione]	
< 10	< 10	50 to 75		O=C1CCC(N2Cc3cc(N4CC5(CCN(CC6CCN(c7ccc([C@@H]8c9ccc(O)cc9OC[C@@H]8c8ccccc8)cc7F)CC6)CC5)C4)ccc3C2=O)C(=O)N1 (stereo partly drawn) [Example 88, 3-(5-(7-((1-(2-fluoro-4-(cis-7-hydroxyl-3-phenylchroman-4-yl)phenyl)piperidin-4-yl)methyl)-2,7-diazaspiro[3.5]nonane-2-yl)-1-oxoisoinodolin-2-yl)piperidin-2,6-dione]	Percentage reduction of ER (ER [3]; compound concentration 10 nM): 47%
< 10			77	O=C1CCC(N2Cc3cc(N4CC5(CN(CC6CCN(c7ccc([C@@H]8c9ccc(O)cc9OC[C@@H]8c8ccccc8)cc7)CC6)C5)C4)ccc3C2=O)C(=O)N1 (stereo partly drawn) [Example 57, 3-(5-(6-((1-(4-((3S,4R)-7-hydroxyl-3-phenyl-chroman-4-yl)phenyl)piperidin-4-yl)methyl)-2,6-diazaspiro[3.3]heptan-2-yl)-1-oxoisoinodolin-2-yl)piperidin-2,6-one]	
